Results from patent US11000033B2, “Ketone or oxime compound, and herbicide” (NISSAN CHEMICAL CORPORATION, priority 2014, dated 2021).

Columns and labels:
Format in all cases: in vivo
transplanted rice plant = assay: Test Example 1: effect on crop, application before weed generation in submerged conditions (symbol a); conditions: application herbicide amount 320 g/ha
Method in brief: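 Alluvial soil pots flooded to 4 cm water, sown with Echinochloa oryzacola, Scirpus juncoides and Monochoria vaginalis, then transplanted with 2.5 leaf stage rice seedlings; pre-emergence application. Greenhouse 25° C. to 30° C.; scored 0–5 by herbicidal ratio 3 weeks after application.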

rice = assay: Test Example 4: effect on crop by soil treatment (symbol b); conditions: application herbicide amount 320 g/ha
Method in brief: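 Crop seeds, among them rice, wheat, beet and rapeseed, were sown in sterilized diluvial soil and covered with about 1.5 cm of soil. Boxes were kept in a greenhouse at 25° C. to 30° C. for plant growth.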

[1] = tested on: Echinochloa crus-galli var. crus-galli; assay: Test Example 5: herbicidal effect by foliage application, plastic box (symbol H); conditions: 320 g/ha, 3 weeks after application
Method in brief: (§1)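 Sowing in sterilized diluvial soil, 14 days' greenhouse growth at 25° C. to 30° C., then uniform small-sprayer foliar application of aqueous emulsion dilution; plants scored three weeks afterwards.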

[2] = tested on: Echinochloa crus-galli var. crus-galli; assay: Test Example 4: herbicidal effect by soil treatment (symbol H); conditions: application herbicide amount 320 g/ha
Method in brief: (§2)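 Seeds were sown in sterilized diluvial soil, covered with about 1.5 cm of soil, and the soil surface was sprayed with a water-diluted emulsion of the compound at a predetermined rate. Plants grew in a greenhouse at 25° C. to 30° C.; effects were scored visually 3 weeks after application.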

Apera spica-venti = assay: Test Example 4: herbicidal effect by soil treatment (symbol L); conditions: application herbicide amount 320 g/ha
Method in brief: as §2

Abutilon theophrasti = assay: Test Example 4: herbicidal effect by soil treatment (symbol M); conditions: application herbicide amount 320 g/ha
Method in brief: as §2

Scirpus juncoides = assay: Test Example 2: herbicidal activity, application during weed generation in submerged conditions (symbol B); conditions: Table 23; application herbicide amount 320 g/ha; grade 0-5 by criteria of Test Example 1
Method in brief: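 Paddy pot test, submerged (4 cm water), alluvial soil, mixed sowing; greenhouse 25–30° C. Emulsion formulation diluted to predetermined rate, applied onto floodwater at 1–2 leaf stage. Visual herbicidal rating at 3 wk post-treatment.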

Cyperus difformis = assay: Test Example 3: herbicidal effect by foliage application, Wagner pot (symbol E); conditions: application herbicide amount 320 g/ha
Method in brief: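 Foliar spray of water-diluted emulsion formulation at a predetermined herbicide amount onto 14-day-old plants in flooded alluvial soil (water depth 0.1–0.5 cm), greenhouse 25–30 °C; rice sown alongside. Scored 3 wk post-application on set criteria.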

soybean = assay: Test Example 5: effect on crop by foliage application, plastic box (symbol d); conditions: 320 g/ha, 3 weeks after application
Method in brief: (§3)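 Sterilized diluvial soil, plastic box (21 × 13 × 7 cm); spot sowing, ~1.5 cm soil cover; greenhouse 25–30° C.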

Alopecurus myosuroides = assay: Test Example 5: herbicidal effect by foliage application, plastic box (symbol J); conditions: 320 g/ha, 3 weeks after application
Method in brief: as §1

corn [3] = assay: Test Example 4: effect on crop by soil treatment (symbol c); conditions: application herbicide amount 320 g/ha
Method in brief: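 The test used sterilized diluvial soil. Seed was set down in spots and overlaid with about 1.5 cm of soil before growth in a greenhouse kept at 25° C. to 30° C.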

beet = assay: Test Example 5: effect on crop by foliage application, plastic box (symbol f); conditions: 320 g/ha, 3 weeks after application
Method in brief: as §3

corn [4] = assay: Test Example 5: effect on crop by foliage application, plastic box (symbol c); conditions: 320 g/ha, 3 weeks after application
Method in brief: as §3

Stellaria media = assay: Test Example 4: herbicidal effect by soil treatment (symbol P); conditions: application herbicide amount 320 g/ha
Method in brief: as §2

SMILES: Cc1cc(C)c(C2=C(O)CC(CC(=O)C3CC3)C2=O)c(C)c1 (stereo not drawn) [2-017]
- Effect grade on crop, a: transplanted rice plant (transplanted rice plant): 5 (Herbicidal ratio of 90% or more (almost completely withered))
- b: directly sowed rice plant, effect on crop grade (rice): 5 (Herbicidal ratio of 90% or more (almost completely withered))
- H: Echinochloa crus-galli var. crus-galli, herbicidal effect grade [1]: 5 (Herbicidal ratio of 90% or more (almost completely withered))
- H: Echinochloa crus-galli var. crus-galli, herbicidal effect grade [2]: 5 (Herbicidal ratio of 90% or more (almost completely withered))
- L: Apera spica-venti, herbicidal effect grade (Apera spica-venti): 3 (Herbicidal ratio of 40% or higher and lower than 70%)
- M: Abutilon theophrasti, herbicidal effect grade (Abutilon theophrasti): 4 (Herbicidal ratio of 70% or higher and lower than 90%)
- Herbicidal effect grade, B: Scirpus juncoides (Scirpus juncoides): 4 (Herbicidal ratio of 70% or higher and lower than 90%)
- herbicidal effect on E, grade 0-5 (Cyperus difformis): 5 (Herbicidal ratio of 90% or more (almost completely withered))
- d: soybean, effect on crop grade (soybean): 0 (Herbicidal ratio of 5% or lower (almost no effect))
- J: Alopecurus myosuroides, herbicidal effect grade (Alopecurus myosuroides): 4 (Herbicidal ratio of 70% or higher and lower than 90%)
- c: corn, effect on crop grade (corn [3]): 0 (Herbicidal ratio of 5% or lower (almost no effect))
- f: beet, effect on crop grade (beet): 0 (Herbicidal ratio of 5% or lower (almost no effect))
- c: corn, effect on crop grade (corn [4]): 2 (Herbicidal ratio of 20% or higher and lower than 40%)
- P: Stellaria media, herbicidal effect grade (Stellaria media): 0 (Herbicidal ratio of 5% or lower (almost no effect))

SMILES: CON=C(C)CC1CC(O)=C(c2c(C)cc(-c3ccccc3)cc2C)C1=O (stereo not drawn) [6-015]
- Effect grade on crop, a: transplanted rice plant (transplanted rice plant): 5 (Herbicidal ratio of 90% or more (almost completely withered))
- b: directly sowed rice plant, effect on crop grade (rice): 5 (Herbicidal ratio of 90% or more (almost completely withered))
- H: Echinochloa crus-galli var. crus-galli, herbicidal effect grade [1]: 5 (Herbicidal ratio of 90% or more (almost completely withered))
- H: Echinochloa crus-galli var. crus-galli, herbicidal effect grade [2]: 5 (Herbicidal ratio of 90% or more (almost completely withered))
- L: Apera spica-venti, herbicidal effect grade (Apera spica-venti): 5 (Herbicidal ratio of 90% or more (almost completely withered))
- M: Abutilon theophrasti, herbicidal effect grade (Abutilon theophrasti): 3 (Herbicidal ratio of 40% or higher and lower than 70%)
- Herbicidal effect grade, B: Scirpus juncoides (Scirpus juncoides): 5 (Herbicidal ratio of 90% or more (almost completely withered))
- herbicidal effect on E, grade 0-5 (Cyperus difformis): 5 (Herbicidal ratio of 90% or more (almost completely withered))
- d: soybean, effect on crop grade (soybean): 3 (Herbicidal ratio of 40% or higher and lower than 70%)
- J: Alopecurus myosuroides, herbicidal effect grade (Alopecurus myosuroides): 5 (Herbicidal ratio of 90% or more (almost completely withered))
- c: corn, effect on crop grade (corn [3]): 5 (Herbicidal ratio of 90% or more (almost completely withered))
- f: beet, effect on crop grade (beet): 0 (Herbicidal ratio of 5% or lower (almost no effect))
- c: corn, effect on crop grade (corn [4]): 5 (Herbicidal ratio of 90% or more (almost completely withered))
- P: Stellaria media, herbicidal effect grade (Stellaria media): 2 (Herbicidal ratio of 20% or higher and lower than 40%)

SMILES: CON=C(C)CC1CC(O)=C(c2c(C)cc(-c3ccc(C(F)(F)F)cc3)cc2C)C1=O (mixture of isomers) [6-016]
- Effect grade on crop, a: transplanted rice plant (transplanted rice plant): 4 (Herbicidal ratio of 70% or higher and lower than 90%)
- b: directly sowed rice plant, effect on crop grade (rice): 2 (Herbicidal ratio of 20% or higher and lower than 40%)
- H: Echinochloa crus-galli var. crus-galli, herbicidal effect grade [1]: 5 (Herbicidal ratio of 90% or more (almost completely withered))
- H: Echinochloa crus-galli var. crus-galli, herbicidal effect grade [2]: 4 (Herbicidal ratio of 70% or higher and lower than 90%)
- L: Apera spica-venti, herbicidal effect grade (Apera spica-venti): 5 (Herbicidal ratio of 90% or more (almost completely withered))
- M: Abutilon theophrasti, herbicidal effect grade (Abutilon theophrasti): 0 (Herbicidal ratio of 5% or lower (almost no effect))
- Herbicidal effect grade, B: Scirpus juncoides (Scirpus juncoides): 0 (Herbicidal ratio of 5% or lower (almost no effect))
- herbicidal effect on E, grade 0-5 (Cyperus difformis): 1 (Herbicidal ratio of 5% or higher and lower than 20%)
- d: soybean, effect on crop grade (soybean): 0 (Herbicidal ratio of 5% or lower (almost no effect))
- J: Alopecurus myosuroides, herbicidal effect grade (Alopecurus myosuroides): 1 (Herbicidal ratio of 5% or higher and lower than 20%)
- c: corn, effect on crop grade (corn [3]): 0 (Herbicidal ratio of 5% or lower (almost no effect))
- f: beet, effect on crop grade (beet): 0 (Herbicidal ratio of 5% or lower (almost no effect))
- c: corn, effect on crop grade (corn [4]): 5 (Herbicidal ratio of 90% or more (almost completely withered))
- P: Stellaria media, herbicidal effect grade (Stellaria media): 0 (Herbicidal ratio of 5% or lower (almost no effect))

SMILES: Cc1cc(C)c(C2=C(O)CC(CC(=O)C3CCCC3)C2=O)c(C)c1 (stereo not drawn) [2-028]
- Effect grade on crop, a: transplanted rice plant (transplanted rice plant): 3 (Herbicidal ratio of 40% or higher and lower than 70%)
- b: directly sowed rice plant, effect on crop grade (rice): 5 (Herbicidal ratio of 90% or more (almost completely withered))
- H: Echinochloa crus-galli var. crus-galli, herbicidal effect grade [1]: 5 (Herbicidal ratio of 90% or more (almost completely withered))
- H: Echinochloa crus-galli var. crus-galli, herbicidal effect grade [2]: 1 (Herbicidal ratio of 5% or higher and lower than 20%)
- L: Apera spica-venti, herbicidal effect grade (Apera spica-venti): 2 (Herbicidal ratio of 20% or higher and lower than 40%)
- M: Abutilon theophrasti, herbicidal effect grade (Abutilon theophrasti): 1 (Herbicidal ratio of 5% or higher and lower than 20%)
- Herbicidal effect grade, B: Scirpus juncoides (Scirpus juncoides): 0 (Herbicidal ratio of 5% or lower (almost no effect))
- herbicidal effect on E, grade 0-5 (Cyperus difformis): 4 (Herbicidal ratio of 70% or higher and lower than 90%)
- d: soybean, effect on crop grade (soybean): 0 (Herbicidal ratio of 5% or lower (almost no effect))
- J: Alopecurus myosuroides, herbicidal effect grade (Alopecurus myosuroides): 4 (Herbicidal ratio of 70% or higher and lower than 90%)
- c: corn, effect on crop grade (corn [3]): 2 (Herbicidal ratio of 20% or higher and lower than 40%)
- f: beet, effect on crop grade (beet): 0 (Herbicidal ratio of 5% or lower (almost no effect))
- c: corn, effect on crop grade (corn [4]): 4 (Herbicidal ratio of 70% or higher and lower than 90%)
- P: Stellaria media, herbicidal effect grade (Stellaria media): 0 (Herbicidal ratio of 5% or lower (almost no effect))

SMILES: CON=C(C)CC1CC(O)=C(c2c(C)cc(OCC(F)(F)F)cc2C)C1=O (stereo not drawn) [6-049]
- Effect grade on crop, a: transplanted rice plant (transplanted rice plant): 5 (Herbicidal ratio of 90% or more (almost completely withered))
- b: directly sowed rice plant, effect on crop grade (rice): 5 (Herbicidal ratio of 90% or more (almost completely withered))
- H: Echinochloa crus-galli var. crus-galli, herbicidal effect grade [1]: 5 (Herbicidal ratio of 90% or more (almost completely withered))
- H: Echinochloa crus-galli var. crus-galli, herbicidal effect grade [2]: 5 (Herbicidal ratio of 90% or more (almost completely withered))
- L: Apera spica-venti, herbicidal effect grade (Apera spica-venti): 5 (Herbicidal ratio of 90% or more (almost completely withered))
- M: Abutilon theophrasti, herbicidal effect grade (Abutilon theophrasti): 4 (Herbicidal ratio of 70% or higher and lower than 90%)
- Herbicidal effect grade, B: Scirpus juncoides (Scirpus juncoides): 4 (Herbicidal ratio of 70% or higher and lower than 90%)
- herbicidal effect on E, grade 0-5 (Cyperus difformis): 5 (Herbicidal ratio of 90% or more (almost completely withered))
- d: soybean, effect on crop grade (soybean): 2 (Herbicidal ratio of 20% or higher and lower than 40%)
- J: Alopecurus myosuroides, herbicidal effect grade (Alopecurus myosuroides): 5 (Herbicidal ratio of 90% or more (almost completely withered))
- c: corn, effect on crop grade (corn [3]): 5 (Herbicidal ratio of 90% or more (almost completely withered))
- f: beet, effect on crop grade (beet): 4 (Herbicidal ratio of 70% or higher and lower than 90%)
- c: corn, effect on crop grade (corn [4]): 5 (Herbicidal ratio of 90% or more (almost completely withered))
- P: Stellaria media, herbicidal effect grade (Stellaria media): 4 (Herbicidal ratio of 70% or higher and lower than 90%)

SMILES: CON=C(C)CC1CC(O)=C(c2c(C)cc(-c3ccc(Cl)nc3)cc2C)C1=O (mixture of isomers) [6-035]
- Effect grade on crop, a: transplanted rice plant (transplanted rice plant): 5 (Herbicidal ratio of 90% or more (almost completely withered))
- b: directly sowed rice plant, effect on crop grade (rice): 5 (Herbicidal ratio of 90% or more (almost completely withered))
- H: Echinochloa crus-galli var. crus-galli, herbicidal effect grade [1]: 5 (Herbicidal ratio of 90% or more (almost completely withered))
- H: Echinochloa crus-galli var. crus-galli, herbicidal effect grade [2]: 5 (Herbicidal ratio of 90% or more (almost completely withered))
- L: Apera spica-venti, herbicidal effect grade (Apera spica-venti): 5 (Herbicidal ratio of 90% or more (almost completely withered))
- M: Abutilon theophrasti, herbicidal effect grade (Abutilon theophrasti): 0 (Herbicidal ratio of 5% or lower (almost no effect))
- Herbicidal effect grade, B: Scirpus juncoides (Scirpus juncoides): 4 (Herbicidal ratio of 70% or higher and lower than 90%)
- herbicidal effect on E, grade 0-5 (Cyperus difformis): 5 (Herbicidal ratio of 90% or more (almost completely withered))
- d: soybean, effect on crop grade (soybean): 2 (Herbicidal ratio of 20% or higher and lower than 40%)
- J: Alopecurus myosuroides, herbicidal effect grade (Alopecurus myosuroides): 5 (Herbicidal ratio of 90% or more (almost completely withered))
- c: corn, effect on crop grade (corn [3]): 2 (Herbicidal ratio of 20% or higher and lower than 40%)
- f: beet, effect on crop grade (beet): 0 (Herbicidal ratio of 5% or lower (almost no effect))
- c: corn, effect on crop grade (corn [4]): 5 (Herbicidal ratio of 90% or more (almost completely withered))
- P: Stellaria media, herbicidal effect grade (Stellaria media): 3 (Herbicidal ratio of 40% or higher and lower than 70%)
